Experimental data as given in patent publication US7713994B2 (Wyeth LLC, priority 2005, dated 2010).
Read-outs that look alike come from different tables or passages of the source.

What was measured:
[1] = tested on: LoVo; assay: Cytotoxicity assay (SRB), LoVo; format: cell-based; details: Homo sapiens, LoVo, 72 h, read-out: In Vitro Cellular Activity IC50 LOVO
Experimental: (§1) BT474, HCT-116, LoVo and MCF-7 were maintained under 7% CO2 in RPMI 1640 medium supplemented with 10% fetal bovine serum and 50 µg/ml gentamicin.
(§2) Cells were plated in 96-well microtiter dishes (12000 cells/well for BT474, 4000 cells/well for HCT-116, 6000 cells/well for LoVo and 6000 cells/well for MCF-7) in RPMI 1640 medium containing 5% fetal bovine serum and 50 µg/ml gentamicin. The cells were allowed to incubate overnight at 37° C., 7% CO2. Compound dilutions were prepared using the same medium. HCT-116, LoVo and MCF-7 cells were cultured for three days and BT474 cells were cultured for 6 days, in the presence of each compound dilution. Untreated cells were included as controls. The percentage of surviving cells was determined using a protein binding dye (sulforhodamineB, SRB) assay. Cellular protein was precipitated in each well by the addition of 0.05 ml of 50% cold trichloroacetic acid (TCA). After 1 hour, the plates were washed extensively in dH2O and dried. The sulforhodamineB dye solution (0.08 mL of 0.4% SRB in 1% acetic acid) was added to each well, kept at room temperature for ten minutes, then washed in 1% acetic acid and dried. The dye was dissolved in 10 mM Tris-HCl (150 uL) and the absorbency read at 540 nm.

[2] = tested on: HCT-116; assay: Cytotoxicity assay (SRB), HCT-116; format: cell-based; details: Homo sapiens, HCT-116, 72 h, read-out: In Vitro Cellular Activity IC50 HCT116
Experimental: as §1, §2

[3] = tested on: BT474; assay: Cytotoxicity assay (SRB), BT474; format: cell-based; details: Homo sapiens, BT-474, 144 h, read-out: In Vitro Cellular Activity IC50 BT474
Experimental: as §1, §2

[4] = tested on: MCF-7; assay: Cytotoxicity assay (SRB), MCF-7; format: cell-based; details: Homo sapiens, MCF7, 72 h, read-out: In Vitro Cellular Activity IC50 MCF-7
Experimental: as §1, §2

[5] = target: T1, cyclin D1/cdk 4 enzyme (Homo sapiens, UniProt P11802); assay: CDK4 ELISA kinase assay (phospho-Rb ser 795 detection); format: biochemical; details: In Vitro Enzyme Assay, cyclin D1/cdk 4, read-out: CDK4 IC50
T1 construct: made in house; host or cells: Sf9 insect cells, recombinant baculovirus
T1 sequence (P11802 whole entry, species assumed): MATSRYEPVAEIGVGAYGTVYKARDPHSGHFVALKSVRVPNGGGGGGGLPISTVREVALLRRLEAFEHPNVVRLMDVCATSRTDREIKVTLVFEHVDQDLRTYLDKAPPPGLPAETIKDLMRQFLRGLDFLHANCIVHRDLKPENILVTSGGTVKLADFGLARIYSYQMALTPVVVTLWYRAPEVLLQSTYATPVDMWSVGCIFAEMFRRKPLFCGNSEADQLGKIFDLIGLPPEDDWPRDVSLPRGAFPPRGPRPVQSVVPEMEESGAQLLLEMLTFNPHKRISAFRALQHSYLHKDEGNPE
T1 sequence (P24385 whole entry partner, species assumed): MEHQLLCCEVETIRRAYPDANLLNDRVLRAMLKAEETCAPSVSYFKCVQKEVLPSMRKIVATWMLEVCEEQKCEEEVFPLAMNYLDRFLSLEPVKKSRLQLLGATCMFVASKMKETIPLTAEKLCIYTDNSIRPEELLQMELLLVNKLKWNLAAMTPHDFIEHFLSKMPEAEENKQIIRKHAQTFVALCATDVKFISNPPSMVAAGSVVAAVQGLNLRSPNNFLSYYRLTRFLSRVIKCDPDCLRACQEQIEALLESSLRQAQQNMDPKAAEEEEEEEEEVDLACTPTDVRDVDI
Summary of the method: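 ELISA format: plate-bound GST-Rb, 200 μM ATP, Sf9 cyclin/CDK enzyme, 1 h at 30° C; then anti-pRb Ser795 primary overnight at 4° C, HRP secondary, TMB. IC50 after no-substrate background subtraction.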

CCCCN(C)CCN(C)c1ccc(NC=C2C(=O)NC(=O)c3ccc(Br)cc32)cc1 (stereo in doubt) [Example 257, (4Z)-6-Bromo-4-[({4-[{2-[butyl(methyl)amino]ethyl}(methyl)amino]phenyl}amino)methylene]isoquinoline-1,3(2H,4H)-dione]
IC50 ([1]; LoVo cells, SRB, three days): 4.7 µM | IC50 ([2]; HCT116 cells, SRB, three days): 2.5 µM | IC50 ([3]; BT474 cells, SRB, 6 days): 6.5 µM | IC50 ([4]; MCF-7 cells, SRB, three days): 3.6 µM

CCCCN(C)CCN(C)c1ccc(NC=C2C(=O)NC(=O)c3ccc(Br)cc32)cc1 (stereo in doubt) [Example 866, (4Z)-6-Bromo-4-[({4-[{2-[butyl(methyl)amino]ethyl}(methyl)amino]phenyl}amino)methylene]isoquinoline-1,3(2H,4H)-dione]
IC50 ([1]; LoVo cells, 3 days, SRB): 4.7 µM | IC50 ([2]; HCT116 cells, 3 days, SRB): 2.5 µM | IC50 ([3]; BT474 cells, 6 days, SRB): 6.5 µM | IC50 ([4]; MCF-7 cells, 3 days, SRB): 3.6 µM

CN(CCN1CCOCC1)c1ccc(NC=C2C(=O)NC(=O)c3ccc(Br)cc32)cc1 (stereo in doubt) [Example 871, (4Z)-6-Bromo-4-[({4-[methyl(2-morpholin-4-ylethyl)amino]phenyl}amino)methylene]isoquinoline-1,3(2H,4H)-dione]
IC50 ([1]; LoVo cells, 3 days, SRB): 46.6 µM | IC50 ([2]; HCT116 cells, 3 days, SRB): 13.9 µM | IC50 ([3]; BT474 cells, 6 days, SRB): > 50 µM | IC50 ([4]; MCF-7 cells, 3 days, SRB): 29.1 µM

CN1C(=O)/C(=C\Nc2ccc(CN3CCCCC3)cc2)c2ccccc2C1=O [Example 49, (4Z)-2-Methyl-4-{[(4-piperidin-1-ylmethyl)phenyl]amino}methyleneisoquinoline-1,3(2H,4H)-dione]
IC50 [1]: 11.5 µM | IC50 [2]: 5.5 µM | IC50 [3]: 6.85 µM | IC50 [4]: 13 µM

O=C1NC(=O)c2ccc(Br)cc2/C1=C/NCc1ccc2cc[nH]c2c1 [Example 129, (4Z)-6-Bromo-4-{[(1H-indol-6-ylmethyl)amino]methylene}isoquinoline-1,3(2H,4H)-dione]
IC50 ([1]; LoVo cells, SRB, three days): > 50 µM | IC50 ([2]; HCT116 cells, SRB, three days): 26 µM | IC50 ([3]; BT474 cells, SRB, 6 days): 30 µM | IC50 ([4]; MCF-7 cells, SRB, three days): 39 µM

COc1ccc(CN/C(C)=C2\C(=O)NC(=O)CC2c2ccccc2)cc1O (stereo not drawn) [Example 140, (3Z)-3-{1-[(3-hydroxy-4-methoxybenzyl)amino]ethylidene}-4-phenylpiperidine-2,6-dione]
IC50 ([1]; LoVo cells, SRB, three days): > 50 µM | IC50 ([2]; HCT116 cells, SRB, three days): > 50 µM | IC50 ([3]; BT474 cells, SRB, 6 days): 30 µM | IC50 ([4]; MCF-7 cells, SRB, three days): > 50 µM

O=C1NC(=O)c2ccc(Br)cc2/C1=C/NCc1ccc(OCCOCc2ccccc2)c(O)c1 [Example 159]
IC50 ([1]; LoVo cells, SRB, three days): 18 µM | IC50 ([2]; HCT116 cells, SRB, three days): 16 µM | IC50 ([3]; BT474 cells, SRB, 6 days): 25 µM | IC50 ([4]; MCF-7 cells, SRB, three days): > 50 µM

COc1ccc(CN/C=C2\C(=O)N(C(C)=O)N(C(C)=O)c3ccccc32)cc1O [Example 167, (4Z)-1,2-Diacetyl-4-{[(3-hydroxy-4-methoxybenzyl)amino]methylene}-1,4-dihydrocinnolin-3(2H)-one]
IC50 ([1]; LoVo cells, SRB, three days): 12 µM | IC50 ([2]; HCT116 cells, SRB, three days): 11 µM | IC50 ([3]; BT474 cells, SRB, 6 days): 9.6 µM | IC50 ([4]; MCF-7 cells, SRB, three days): 13 µM

O=C1NC(=O)c2ccc(Br)cc2/C1=C/NCc1ccccc1O [Example 174, (4Z)-6-Bromo-4-{[(2-hydroxybenzyl)amino]methylene}isoquinoline-1,3(2H,4H)-dione]
IC50 ([1]; LoVo cells, SRB, three days): 35 µM | IC50 ([2]; HCT116 cells, SRB, three days): 19 µM | IC50 ([3]; BT474 cells, SRB, 6 days): 30 µM | IC50 ([4]; MCF-7 cells, SRB, three days): 50 µM

COc1ccc(CN/C=C2\C(=O)NC(=O)c3ccc(Br)cc32)cc1F [Example 181, (4Z)-6-Bromo-4-{[(3-fluoro-4-methoxybenzyl)amino]methylene}isoquinoline-1,3(2H,4H)-dione]
IC50 ([1]; LoVo cells, SRB, three days): > 50 µM | IC50 ([2]; HCT116 cells, SRB, three days): 16 µM | IC50 ([3]; BT474 cells, SRB, 6 days): > 50 µM | IC50 ([4]; MCF-7 cells, SRB, three days): > 50 µM

CN1CCN(c2ccc(N/C=C3\C(=O)NCc4ccc(Br)cc43)cc2)CC1 [Example 223, (4Z)-6-Bromo-4-({[4-(4-methylpiperazin-1-yl)phenyl]amino}methylene)-1,4-dihydroisoquinolin-3(2H)-one]
IC50 ([1]; LoVo cells, SRB, three days): 2.8 µM | IC50 ([2]; HCT116 cells, SRB, three days): 4.1 µM | IC50 ([3]; BT474 cells, SRB, 6 days): 8.7 µM | IC50 ([4]; MCF-7 cells, SRB, three days): 3.2 µM

O=C1NC(=O)c2ccc(Br)cc2/C1=C/Nc1ccc2ncccc2c1 [Example 271, (4Z)-6-Bromo-4-[(quinolin-6-ylamino)methylene]isoquinoline-1,3(2H,4H)-dione]
IC50 ([1]; LoVo cells, SRB, three days): > 50 µM | IC50 ([2]; HCT116 cells, SRB, three days): 46 µM | IC50 ([3]; BT474 cells, SRB, 6 days): 32 µM | IC50 ([4]; MCF-7 cells, SRB, three days): 39 µM

CCOP(=O)(OCC)c1ccc2c(c1)/C(=C/Nc1ccc(N3CCN(C)CC3)cc1)C(=O)NC2=O [Example 284, Diethyl [(4Z)-4-({[4-(4-methylpiperazin-1-yl)phenyl]amino}methylene)-1,3-dioxo-1,2,3,4-tetrahydroisoquinolin-6-yl]phosphonate]
IC50 [1]: 25 µM | IC50 [2]: 20 µM | IC50 [3]: > 50 µM | IC50 [4]: 12 µM

CC(C)(C)OC(=O)N1CCN(c2ccc(N/C=C3\C(=O)NC(=O)c4ccc(Br)cc43)cc2)CC1 [Example 294, tert-Butyl 4-(4-{[(Z)-(6-bromo-1,3-dioxo-2,3-dihydroisoquinolin-4(1H)-ylidene)methyl]amino}phenyl)piperazine-1-carboxylate]
IC50 ([1]; LoVo cells, SRB, three days): > 50 µM | IC50 ([2]; HCT116 cells, SRB, three days): 9 µM | IC50 ([3]; BT474 cells, SRB, 6 days): 49 µM | IC50 ([4]; MCF-7 cells, SRB, three days): 24 µM

CN1CCN(c2ccc(NC=C3C(=O)NC(=O)c4ccc(-c5ccc6c(c5)OCO6)cc43)cc2)CC1 [Example 806, 6-Benzo[1,3]dioxol-5-yl-4-{[4-(4-methyl-piperazin-1-yl)-phenylamino]-methylene}-4H-isoquinoline-1,3-dione]
IC50 [5]: 2.1 µM

CN1CCN(c2ccc(NC=C3C(=O)NC(=O)c4ccc(-c5ccc(N(C)C)cc5)cc43)cc2)CC1 [Example 807, 6-(4-Dimethylamino-phenyl)-4-{[4-(4-methyl-piperazin-1-yl)-phenylamino]-methylene}-4H-isoquinoline-1,3-dione]
IC50 [5]: 14.5 µM

CN1CCN(c2ccc(NC=C3C(=O)NC(=O)c4ccc(-c5ccc(CCC(=O)O)cc5)cc43)cc2)CC1 [Example 809, 3-[4-(4-{[4-(4-Methyl-piperazin-1-yl)-phenylamino]-methylene}-1,3-dioxo-1,2,3,4-tetrahydro-isoquinolin-6-yl)-phenyl]-propionic acid]
IC50 [5]: 13.8 µM

CN1CCN(c2ccc(NC=C3C(=O)NC(=O)c4ccc(-c5cccc(N)c5)cc43)cc2)CC1 [Example 810, 6-(3-Amino-phenyl)-4-{[4-(4-methyl-piperazin-1-yl)-phenylamino]-methylene}-4H-isoquinoline-1,3-dione]
IC50 [5]: 2.76 µM

CN1CCN(c2ccc(NC=C3C(=O)NC(=O)c4ccc(-c5ccc(Cl)cc5Cl)cc43)cc2)CC1 [Example 811, 6-(2,4-Dichloro-phenyl)-4-{[4-(4-methyl-piperazin-1-yl)-phenylamino]-methylene}-4H-isoquinoline-1,3-dione]
IC50 [5]: 22.3 µM

COc1ccc(-c2ccc3c(c2)C(=CNCc2ccc(O)c(O)c2)C(=O)NC3=O)c(OC)c1 [Example 814, 4-[(3,4-Dihydroxy-benzylamino)-methylene]-6-(2,4-dimethoxy-phenyl)-4H-isoquinoline-1,3-dione]
IC50 [5]: 2.75 µM

COc1cc(-c2ccc3c(c2)C(=CNCc2ccc(O)c(O)c2)C(=O)NC3=O)cc(OC)c1OC [Example 815, 4-[(3,4-Dihydroxy-benzylamino)-methylene]-6-(3,4,5-trimethoxy-phenyl)-4H-isoquinoline-1,3-dione]
IC50 [5]: 2.5 µM

CN1CCN(c2ccc(NC=C3C(=O)NC(=O)c4ccc(C=C5CCCC5)cc43)cc2)CC1 [Example 828, 6-Cyclopentylidenemethyl-4-{[4-(4-methyl-piperazin-1-yl)-phenylamino]-methylene}-4H-isoquinoline-1,3-dione]
IC50 [5]: 4.4 µM

CN1CCN(c2ccc(NC=C3C(=O)NC(=O)c4ccc(C=Cc5ccc([N+](=O)[O-])cc5)cc43)cc2)CC1 [Example 829, 4-{[4-(4-Methyl-piperazin-1-yl)-phenylamino]-methylene}-6-[2-(4-nitro-phenyl)-vinyl]-4H-isoquinoline-1,3-dione]
IC50 [5]: 26.5 µM

COc1ccc(NC=C2C(=O)NCc3cc(Br)ccc32)cc1O [Example 862, 7-Bromo-4-[(3-hydroxy-4-methoxy-phenylamino)-methylene]-1,4-dihydro-2H-isoquinolin-3-one]
IC50 [5]: 31 µM
